Legend:
Assay in all cases: relative viability (nuclei count vs DMSO), 5 days (fraction); higher = more cells survive
[1] = compound: Cc1ccccc1C(C(=O)NC1CCCCC1)N(C(=O)Cn1ccnc1C)c1cccc(F)c1 [IDH-C35] + Nc1ncn([C@H]2C[C@H](O)[C@@H](CO)O2)c(=O)n1 [Decitabine] (partner 2 µM)
Procedure, shortened: (§1)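 Lung cancer cell lines were pin-tool dosed in 1536-well plates on the day after seeding, with either a lone drug or a fixed anchor-drug dose plus five library-drug doses (not always all listed) in √10 steps. Nuclei were counted on 4× images after 5 days. Relative viability is the ratio of treated-well to vehicle-well nuclei counts, with each value a median of duplicate plates.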

[2] = compound: CC1=C(C(=NN1)C)CC2=C(C3=C(S2)N(C(=O)N(C3=O)C)CC(C)C)C(=O)N4C[C@@H](CO4)O + O=C(c1cc(Cc2n[nH]c(=O)c3ccccc23)ccc1F)N1CCN(C(=O)C2CC2)CC1 [Olaparib] (partner 8 µM)
Procedure, shortened: as §1

[3] = compound: CC1=C(C(=NN1)C)CC2=C(C3=C(S2)N(C(=O)N(C3=O)C)CC(C)C)C(=O)N4C[C@@H](CO4)O + CS(=O)(=O)CCNCc1ccc(-c2ccc3ncnc(Nc4ccc(OCc5cccc(F)c5)c(Cl)c4)c3c2)o1 [Lapatinib] (partner 2 µM)
Procedure, shortened: as §1

[4] = compound: Cc1ccccc1C(C(=O)NC1CCCCC1)N(C(=O)Cn1ccnc1C)c1cccc(F)c1 [IDH-C35] + Cc1cc(Nc2cc(N3CCN(C)CC3)nc(Sc3ccc(NC(=O)C4CC4)cc3)n2)n[nH]1 [Tozasertib] (partner 0.1 µM)
Procedure, shortened: as §1

Cell Line | relative viability ([1]; first compound 0.08 µM) | relative viability ([1]; first compound 0.253 µM) | relative viability ([1]; first compound 0.8 µM) | relative viability ([1]; first compound 2.53 µM) | relative viability ([1]; first compound 8 µM) | relative viability ([2]; first compound 0.0025 µM) | relative viability ([2]; first compound 0.007906 µM) | relative viability ([2]; first compound 0.025 µM) | relative viability ([2]; first compound 0.07906 µM) | relative viability ([2]; first compound 0.25 µM) | relative viability ([3]; first compound 0.0025 µM) | relative viability ([3]; first compound 0.007906 µM) | relative viability ([3]; first compound 0.025 µM) | relative viability ([3]; first compound 0.07906 µM) | relative viability ([3]; first compound 0.25 µM) | relative viability ([4]; first compound 0.08 µM) | relative viability ([4]; first compound 0.253 µM) | relative viability ([4]; first compound 0.8 µM) | relative viability ([4]; first compound 2.53 µM) | relative viability ([4]; first compound 8 µM)
201T | 0.871 | 0.839 | 0.86 | 0.839 | 0.836 | 0.852 | 0.815 | 0.828 | 0.845 | 0.853 | 1.05 | 1 | 1.03 | 0.986 | 1.06 | 0.927 | 0.914 | 0.893 | 0.928 | 0.828
A549 | 0.313 | 0.263 | 0.312 | 0.195 | 0.223 | 0.322 | 0.391 | 0.355 | 0.358 | 0.4 | 1.08 | 1.07 | 1.04 | 0.976 | 1.08 | – | – | – | – | –
A-427 | 0.622 | 0.57 | 0.598 | 0.526 | 0.58 | 0.762 | 0.769 | 0.706 | 0.729 | 0.886 | 1 | 1.09 | 0.679 | 1.02 | 1.08 | 0.216 | 0.221 | 0.215 | 0.206 | 0.182
ABC-1 | 0.838 | 1.12 | 0.975 | 0.98 | 0.95 | 0.487 | 0.519 | – | 0.485 | 0.517 | 1.5 | 0.918 | 1.12 | 0.92 | 0.823 | 0.188 | 0.171 | 0.188 | 0.146 | 0.176
BEN | 0.683 | 0.707 | 0.681 | 0.707 | 0.75 | 0.868 | 0.709 | 0.684 | 0.806 | 0.712 | 0.669 | 0.672 | 0.629 | 0.526 | 0.741 | 0.5 | 0.429 | 0.515 | 0.474 | 0.552
CAL-12T | – | – | – | – | – | 0.732 | 0.704 | 0.67 | 0.755 | 0.772 | 0.822 | 0.82 | – | 0.837 | 0.766 | 0.307 | 0.306 | 0.303 | 0.379 | 0.301
COR-L23 | 0.426 | 0.471 | 0.421 | 0.478 | 0.459 | 0.404 | 0.33 | 0.298 | 0.328 | 0.325 | 0.883 | 0.846 | 0.656 | 0.826 | 0.923 | 0.253 | 0.174 | 0.263 | 0.195 | 0.158
COR-L 105 | 0.559 | 0.678 | 0.724 | 0.677 | 0.619 | 0.604 | 0.587 | 0.617 | 0.771 | 0.656 | 0.36 | 0.422 | 0.381 | 0.302 | 0.369 | 0.351 | 0.313 | 0.386 | 0.383 | 0.337
Calu-6 | – | – | – | – | – | 0.532 | 0.501 | 0.557 | 0.59 | 0.603 | 1.13 | 1.06 | 0.947 | 1.04 | 1.19 | – | – | – | – | –
ChaGo-K-1 | 0.507 | 0.531 | 0.535 | 0.533 | 0.531 | 0.466 | 0.42 | 0.414 | 0.404 | 0.435 | – | – | – | – | – | 0.22 | 0.231 | 0.221 | 0.258 | 0.203
EBC-1 | – | – | – | – | – | 0.738 | 0.705 | 0.718 | 0.836 | 0.748 | 0.201 | 0.204 | 0.217 | 0.203 | 0.204 | – | – | – | – | –
EKVX | 0.343 | 0.399 | 0.4 | 0.321 | 0.339 | 1.02 | 0.969 | 0.892 | 0.775 | 0.988 | 0.251 | 0.198 | 0.203 | 0.524 | 0.191 | 0.422 | 0.373 | 0.361 | 0.378 | 0.344
EMC-BAC-2 | 1.03 | 0.988 | 1 | 0.925 | 0.993 | 0.546 | 0.464 | 0.474 | 0.489 | 0.527 | 0.604 | 0.987 | 0.907 | 0.861 | 0.957 | 0.304 | 0.298 | 0.314 | 0.28 | 0.283
EPLC-272H | 0.357 | 0.392 | 0.344 | – | 0.384 | 0.69 | 0.778 | 0.771 | 0.844 | 1.09 | 1.08 | 0.736 | 0.907 | 1.19 | 0.937 | 0.262 | 0.193 | 0.254 | 0.333 | 0.217
H3255 | 0.61 | 0.607 | 0.606 | 0.63 | 0.596 | 0.555 | 0.56 | 0.52 | 0.546 | 0.576 | 0.24 | 0.244 | 0.25 | 0.241 | 0.223 | 0.59 | 0.6 | 0.522 | 0.511 | 0.703
